Reference: US20230399373A1, “MOLECULAR DESIGNS OF GLUCOSE-RESPONSIVE AND GLUCOSE-CLEAVABLE INSULIN ANALOGUES” (THE TRUSTEES OF INDIANA UNIVERSITY, priority 2020, published 2023)

Key:
Format in all cases: cell-based
IR [1] = assay: Western blot assays of fructose-dependent insulin signaling (IR autophosphorylation, p-AKT/AKT, p-FOXO1/FOXO1, p-GSK-3/GSK-3) in HepG2 cells; conditions: single hormone dose 50 nM
Experimental: Signal propagation was probed via a cytoplasmic kinase cascade and changes in metabolic gene expression in HepG2 cells. […] An overview of IR autophosphorylation (probed by anti-pTyr IR antibodies) and downstream phosphorylation of Ser-Thr protein kinase AKT (protein kinase B; ratio p-AKT/AKT), forkhead transcription factor 1 (p-FOXO1/FOXO1), and glycogen synthase kinase-3 (p-GSK-3/GSK-3) at a single hormone dose (50 nM) was provided by Western blot (WB; FIG. 4 D-F). […] The activity of FRI in the absence of fructose is low.

IR [2] = assay: 96-well plate assay of dose-dependent and ligand-selective IR autophosphorylation
Experimental: Quantitative dose-dependent and ligand-selective IR autophosphorylation were evaluated in a 96-well plate assay (FIG. 5A). FRI triggered a robust signal on addition of 50 mM fructose whereas baseline activity in the absence of fructose was low.

HepG2 cells = assay: PCR assays of ligand-selective metabolic gene regulation (PEPCK, ChREBP, SREBP) in HepG2 cells; conditions: control studies
Experimental: Insulin-signaling in hepatocytes extends to metabolic transcriptional regulation as recapitulated in HepG2 cells. […] Control studies were undertaken in the absence of insulin analogs to assess potential confounding changes in metabolic gene expression on addition of 0 to 100 mM fructose or 0 to 100 mM glucose.

insulin lispro [KP]
signaling by Western blot (IR autophosphorylation, p-AKT/AKT, p-FOXO1/FOXO1, p-GSK-3/GSK-3): dependence on fructose (IR [1]): fructose-independent signaling
IR autophosphorylation signal on addition of 50 mM fructose (IR [2]; 50 mM fructose): high signaling activity
effect of addition of 50 mM glucose on IR autophosphorylation activity (IR [2]; 50 mM glucose): did not influence
IR autophosphorylation baseline activity in the absence of fructose (IR [2]; no fructose): high signaling activity
fructose dependence of metabolic gene regulation (HepG2 cells): No fructose dependence
